Assay results taken from patent US20100040568A1, “Steroidal compounds as melanogenesis modifiers and uses thereof” (SkinMedica, Inc., priority 2008, published 2010).
“Also recorded” adds a separate entry of the source.

Tests used:
[1] = test system: Lamp-1 (lysome-associated membrane protein 1); test: Level of Lamp-1 in melan-a cells; format: cell-based, murine
Description: Melan-a cells were incubated with various concentrations of conessine for 72 hours. Cell lysates were prepared and separated by 7.5% sodium dodecyl sulfate-polyacrylamide gel and transferred to Immobilon-P membranes. Tyrosinase gene family proteins were detected with antibodies against each protein. […] The effect of conessine on the level of Lamp-1 in melan-a cells was examined. A common lineage among the melanosomes and lysosomes is well accepted. Lamp-1 (lysome-associated membrane protein 1) is a lysosome marker. […] Thus, conessine treatment likely results in decreased degradation of both Lamp-1 and tyrosinase gene family proteins (FIG. 12d), thus unexpectedly acting as a melanogenesis […].

[2] = target: T1, tyrosinase (Mus musculus, UniProt P11344); test: Tyrosinase activity assay on melan-a cell lysates; format: biochemical, murine; conditions: for direct inhibition of tyrosinase enzymatic activity: melan-a cell lysates (10 μg) pre-incubated with conessine 10 μM for 30 minutes
T1 construct: endogenous in cells; host or cells: melan-a cells (murine melanocytes), cell lysate
T1 sequence (P11344 19-533): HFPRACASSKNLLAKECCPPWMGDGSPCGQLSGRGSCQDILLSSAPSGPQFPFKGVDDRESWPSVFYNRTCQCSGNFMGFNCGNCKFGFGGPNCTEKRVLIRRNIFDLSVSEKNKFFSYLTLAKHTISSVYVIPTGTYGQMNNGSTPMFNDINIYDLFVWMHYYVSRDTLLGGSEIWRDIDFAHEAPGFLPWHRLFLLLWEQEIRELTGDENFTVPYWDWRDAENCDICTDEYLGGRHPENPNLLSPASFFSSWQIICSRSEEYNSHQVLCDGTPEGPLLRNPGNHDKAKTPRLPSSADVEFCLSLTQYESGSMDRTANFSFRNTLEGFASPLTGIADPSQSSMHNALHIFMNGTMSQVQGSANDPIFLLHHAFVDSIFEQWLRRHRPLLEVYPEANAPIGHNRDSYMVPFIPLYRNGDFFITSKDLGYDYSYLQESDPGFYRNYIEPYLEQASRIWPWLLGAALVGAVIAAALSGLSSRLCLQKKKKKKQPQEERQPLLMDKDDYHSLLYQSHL
Description: The effect of conessine on tyrosinase activity was studied in vitro using melan-a cell lysates.
In one example, melan-a cell lysates (10 μg) were pre-incubated with either diluent, conessine (10 μM) or phenylthiourea (PTU, 300 μM, a known tyrosinase inhibitor) for 30 minutes at room temperature. Tyrosinase activity assay was performed in triplicate on melan-a cell lysates as previously described (Orlow et al. 1990).

[3] = test system: Asian skin equivalent (MEL-A); test: MelanoDerm pigmentation assay, Asian skin equivalent; format: cell-based, human
Text: MelanoDerm™, made by MatTek Corp., is a viable reconstituted three-dimensional human skin equivalent containing normal melanocytes and keratinocytes that are derived from African-American (MEL-B), Asian (MEL-A) or Caucasian (MEL-C) donors. Both MEL-A and MEL-B tissues were used in the current study, and they were maintained in the NMM-113 medium as recommended by the manufacturer.
Tissues were taken out on Days 13 and 16 for the various assays. 30% ethanol: 70% propylene glycol was used as a negative control and the well-known pigmentation inhibitor, arbutin (at concentration of 3 mg/ml), was used as a positive control.
The experiments were repeated twice on both MEL-A and MEL-B tissues from different lots to make sure that the results are reproducible (study 1 or 2). For each experiment, six tissues were treated with conessine, and six were treated with […] (30% ethanol: 70% PEG) or arbutin if applicable. For MEL-B, on day 10, three tissues under each treatment condition were taken out, and one was used for histological studies and the other two were used for the melanin assay. The same protocol was followed with the MEL-B samples after 13 days' treatment and MEL-A after either 13 or 16 days' treatments.
Procedure 1: the effects of conessine on melanin synthesis in MEL-A or B were evaluated by light microscopy (views from the top surface of the tissue). Procedure 2: the distribution of melanin in the treated-MEL-A or B was accessed by image analysis using Fontana-Masson stained histological sections (views from the side of the tissue).
MelanoDerm™, made by MatTek Corp., is a viable reconstituted three-dimensional human skin equivalent containing normal melanocytes and keratinocytes that are derived from African-American (MEL-B), Asian (MEL-A) or Caucasian (MEL-C) donors. It has human skin-like structure and undergoes progressive tissue darkening over the course of 2-3 weeks. MelanoDerm™ provides a useful in vitro means for evaluation of agents that modulate pigmentation. Human skin equivalent models such as MelanoDerm™ provide an alternative to clinical and animal testing for evaluating the effects of putative bioactive compounds on mammalian pigmentation. MelanoDerm™ is considered a more physiologically relevant model than melanocytes alone or melanocyte-keratinocyte co-cultures. Both MEL-A and MEL-B tissues were used in the current study, and they were maintained in the NMM-113 medium as recommended by the manufacturer. In this model, substantial accumulation of newly synthesized melanin occurs over a two to three week period.
Conessine and Licorice extract were dissolved in 30% ethanol: 70% propylene glycol (PEG) to a final concentration of 0.036% (0.36 mg/ml). A 25 μl aliquot of each compound was applied topically to the Asian MelanoDerm™ tissue (MEL-A) on Days 0, 1, 3, 6, 8, 10 and 13. The MelanoDerm™ tissues were fed every other day with 5 ml fresh NMM-113. Prior to each application, the tissues were washed with 1 ml PBS to remove any residual test compound. Tissues were fixed on Days 13 and 16 for microscopic analysis and histological evaluation. In addition, duplicate tissues were frozen on Days 13 and 16 for melanin assay. 30% ethanol: 70% PEG was used as negative control. Cell viability was measured in accordance with the manufacturer's instructions using the MTT assay kit (MatTek Corp., Ashland, Mass. 01721). One MEL-A tissue from each condition was harvested on day 2 and 7, and MTT assay was performed. Similar experiments were performed on MEL-B.
Quantitative melanin assay was performed on the treated MEL-A tissues.

[4] = test system: Tyrosinase gene family proteins; test: Immunoblot of tyrosinase gene family proteins in melan-a cells; format: cell-based, murine; conditions: various concentrations, 72 hours
Description: Melan-a cells were incubated with various concentrations of conessine for 72 hours. Cell lysates were prepared and separated by 7.5% sodium dodecyl sulfate-polyacrylamide gel and transferred to Immobilon-P membranes. Tyrosinase gene family proteins were detected with antibodies against each protein.

## CC1C2CCC3C4CC=C5CC(N(C)C)CCC5(C)C4CCC32CN1C (centres unmarked) [Compound 1, Conessine]
[1]
  cellular level of Lamp-1: increases cellular level of Lamp-1
[2]; cells pre-incubated with conessine for 72 hrs before harvesting
  tyrosinase activity of lysates of pre-treated cells: No obvious difference in tyrosinase activity
[2]; listed as Conessine
  direct inhibition of tyrosinase enzymatic activity: did not directly inhibit tyrosinase activity
[2]; listed as conessine
  direct inhibition of tyrosinase enzymatic activity: does not directly inhibit tyrosinase enzymatic activity
[3]; 0.036% topical, both 13 and 16 days, compared to vehicle-treated
  decreased melanin content (quantitative melanin assay): 30-40%
[3]; 0.036% topical, day 13, 8 sections
  melanin content compared to the vehicle-treated tissues (Fontana-Masson sections, quantitative analysis): 49.90%
[3]; 0.036% topical, day 16, 8 sections
  melanin content compared to the vehicle-treated tissues (Fontana-Masson sections, quantitative analysis): 42.31%
[3]; arbutin 3 mg/ml, conessine and licorice 0.36 mg/ml, extract 1:50
  effectiveness as depigmenting agent (comparison): more effective than either Licorice extract or arbutin
[3]; conessine 0.036% (0.36 mg/ml), extract diluted 1:50, 25 μl topical, days 13 and 16
  pigmentation by light microscopy: strikingly decreased; also recorded: becomes lighter
[3]; conessine and licorice 0.36 mg/ml, extract diluted 1:50, 25 μl topical, days 13 and 16
  melanin content by Fontana-Masson staining: significant decrease in the relative melanin content
[4]
  cellular levels of tyrosinase family proteins: increases cellular levels of tyrosinase family proteins in a dose-dependent manner
